Experimental data published in patent US5624906A, “Oral hygiene compositions comprising heteroatom containing alkyl aldonamide compounds” (Lever Brothers Company, Division of Conopco, Inc., priority 1994, dated 1997).
Like-named read-outs stand apart in the source and are kept apart here. Blank lines part the entries; values can stand above or below the compound they belong to.

Tests used:
[1] = Clarity of prototype surfactant compositions (Example 87); assay type: physicochemical; settings: room temperature; for Appearance: 6 months
Description: The prototype shampoo composition is as follows:
(§1) The above formulations were prepared by admixing the above ingredients in listed order and heating the mixture to about 80° C. with rapid stirring. The mixture was then cooled to about 40° C., placed in a clear jar and stored at room temperature for 6 months.

[2] = Ross-Miles foam height (Examples 81-84); assay type: physicochemical; settings: 0.1% aldonamide, 40° C. (or 5-10° C. above Krafft point), 0 ppm hardness; for Foam Height Final: after 10 minutes
Description: (§2) In the Ross-Miles method, 200 mL of a surfactant solution contained in a pipette of specified dimensions with a 2.9-mm-i.d. orifice is allowed to fall 90 cm onto 50 mL of the same solution contained in a cylindrical vessel maintained at a given temperature by means of a water jacket. The height of the foam produced in the cylindrical vessel is read immediately after all the solution has run out of the pipette and then again after a given amount of time.
Using this method, the foam production (initial foam height in mm) and foam stability (final foam height after 10 minutes in mm) were measured at 0.1% aldonamide concentration, 40° C. and 0 ppm (parts per million) hardness.

[3] = Krafft point; assay type: physicochemical; settings: for Krafft Point (0.1%): 0.1% in water; for Krafft Point (1.0%): 1.0% in water
Description: The temperature at and above which surfactants begin to form micelles instead of precipitates is referred to as the Krafft point (Tk) and at this temperature the solubility of a surfactant becomes equal to its CMC (numerical value at which micelles are formed).
The Krafft point was measured by preparing 650 ml of a 0.1% or 1.0% dispersion of aldonamide in water by weight. If the surfactant was soluble at room temperature, the solution was slowly cooled to 0° C. […] (less than zero). If it precipitated out of solution, the temperature at which precipitation occurs was taken as the Krafft point.
If the surfactant was insoluble at room temperature, the dispersion was slowly heated until the solution became homogeneous. It was then slowly cooled until precipitation occurred. The temperature at which the surfactant precipitates out of solution upon cooling was taken as the Krafft point.

[4] = Critical micelle concentration, Wilhelmy plate method; assay type: physicochemical; settings: 60 °C
Description: The critical micelie concentration (CMC) is defined as the concentration at which a surfactant forms micelles in aqueous solution. Micellization is the preferred interfacial phenomena, since certain surfactant benefits such as detergency (the solubilization of soils), foaming, wetting or emulsification depend on the formation of these aggregates in solution.
The CMC value of C8 /C10 oxypropyl D-gluconamide was determined by plotting surface tension as a function of log(concentration) and extrapolating linear points to obtain an intersection point. The concentration at this point was taken as the CMC. The technique used was the Wilhelmy plate method and the instrument used was a Lauda Auto-Tensiometer. While wishing not to be bound to theory, it is believed that surfactants with low CMC values form micelles more readily at lower concentrations than those with high CMC values.

[5] = Water solubility (statements); assay type: physicochemical
[6] = Viscosity of sodium lauryl sulfate compositions (Example 88); assay type: physicochemical; settings: for Viscosity: 22° C.
Description: The prototype surfactant composition is as follows:
as §1
It is well known that the viscosity of a liquid composition comprising of anionic surfactant can be modified by the addition of inorganic salts, such as sodium chloride. However, in the absence of an organic modifier, high levels of salt may be necessary to achieve the required viscosity which may lead to problems of storage at cold temperature or even salting out certain ingredients. In practice, however, the viscosity of a liquid composition is modified by the simultaneous addition of thickener and small amounts of inorganic salt (viscosity cobuilder). The combined effect is greater than either one alone. The viscosity of the above prototype surfactant composition comprising various amounts of heteroatom containing alkyl aldonamide compound is as follows: […]

[7] = cited from earlier work
[8] = cited from earlier work; remark: listed apart in the source
[9] = Effectiveness of adsorption (surface excess concentration, Gibbs equation); assay type: physicochemical; settings: 60 °C, estimated by extrapolating a linear line
Text: The surface excess concentration at surface saturation (Γmax) is defined as a measure of the effectiveness of surfactant adsorption at the water/air interface and represents the maximum value to which adsorption can be obtained. Effectiveness of adsorption is related to the interfacial area occupied by the surfactant molecule. The smaller the effective cross-sectional area of a surfactant at the interface, the greater its effectiveness of adsorption. The effectiveness of adsorption is an important factor in determining surfactant properties such as detergency, foaming, wetting or emulsification. While not wishing to be bound by theory, it is believed that surfactants that absorb effectively at the interface tend have tightly packed coherent interfacial films and often provide better surfactant benefits than those with loosely packed noncoherent films. The effectiveness of adsorption of C8 /C10 oxypropyl D-gluconamide was determined using the Gibbs equation given as: […]
(∂γ/∂log[Conc])T

[10] = Effectiveness in reducing surface tension (surface pressure at CMC); assay type: physicochemical; settings: 60 °C, estimated by extrapolating a linear line
Text: As mentioned before, surface tension reduction depends on the replacement of water molecules at the interface by surfactant molecules, therefore the effectiveness of a surfactant in reducing interfacial surface tension should reflect the saturated concentration of surfactant at the interface relative to that in bulk liquid phase. During this process the surface tension of water steadily decreases as bulk phase surfactant concentration increases. This will continue until the concentration reaches the critical micelle concentration (CMC), above which the surface tension remains nearly unchanged and the interface is saturated with surfactant. The surface tension at the CMC is therefore very close to the minimum interfacial tension or maximum surface pressure that the system can achieve. The surface pressure at this point, IIcmc, is a suitable measure of the effectiveness of a surfactant in reducing surface tension and is given as:
IIcmc =20+2.3nRT(Γmax) log[CMC/C20 ]
n=1 which represents the number of ions whose surface concentration changes with the change in liquid phase surfactant concentration.
CMC/C20 =is the ratio of the critical micelie concentration to the bulk phase surfactant concentration necessary to reduce the surface tension of water by 20 dyn/cm.

[11] = Foam stability and enhancement of sodium/ammonium lauryl sulfate, Ross-Miles (Example 86); assay type: physicochemical; settings: 45° C., 4.0% foam stabilizer in sodium/ammonium lauryl sulfate composition
Description: The results were compared to identical compositions comprising petrochemically derived foam stabilizing agents, in particular, alkanolamides and alcohol ethoxylates. The prototype surfactant composition is as follows:
The compositions were prepared by admixing the ingredients in listed order with rapid stirring at 45--50° C. Foam stability and enhancement were measured at 0.1% based on sodium and ammonium lauryl sulfate (0.16% total solids) at 45° C. and 0 or 120 parts per million (ppm) hardness calcium:magnesium ion 2:1.

[12] = Foam stability and enhancement, Ross-Miles method (Example 85); assay type: physicochemical; settings: triolein/calcium stearate 1 g/L, 10:90 mole % with C12 LAS, 35° C., read after 30 minutes
Description: The triolein/calcium stearate mixture was dispersed to the above solutions using a high speed shear mixer at 60° C. and then cooled to 35 ° C. The triolein/calcium stearate mixture represents an extreme type of antifoam behavior found in sebum soil.
as §2, with “read” for “read immediately”, “30 minutes” for “all the solution”, “elapsed.” for “run out of the pipette and then again after a given amount of time.”
The foam stability and enhancement of the heteroatom containing alkyl aldonamides was further determined using a 10:90 mole percent solution of C8 /C10 oxypropyl D-gluconamide (C8 C10 OPG): sodium dodecyl benzene sulfonate (C12 LAS) and compared to identical solutions of dodecyl D-gluconamide (C12 Gluc): sodium dodecyl benzene sulfonate in the presence and absence of the triolein/calcium stearate antifoam.

[13] = 5.0% in […] sodium lauryl sulfate
[14] = 3.0% in […] sodium lauryl sulfate

CMC (in words) [4]: None (Insoluble)
water solubility (in words) [5]: insoluble in water
Krafft Point (0.1%) [3]: 91 °C
Compound: CCCCCCCCCCCCNC(=O)[C@H](O)[C@@H](O)[C@H](O)[C@H](O)CO [C12 D-Gluconamide, dodecyl D-gluconamide]

Appearance [1, 14]: Clear
Appearance [1, 13]: Precipitate
Appearance (Time): time of precipitate ([1]; 5.0%): 5 months
Foam Height Initial [2]: 200 mm
Foam Height Final [2]: 110 mm
Viscosity Increase ([6]; 3.0% thickener): 120 x
Viscosity ([6]; 3.0% thickener): 1800 Centipoise
Viscosity Increase ([6]; 5.0% thickener): 1373 x
Viscosity ([6]; 5.0% thickener): 20600 Centipoise
Krafft Point (0.1%) [3]: 61 °C
Compound: CCCCCCCCCCCCOCCCNC(=O)[C@H](O)[C@@H](O)[C@H](O)[C@H](O)CO [C12 Oxypropyl D-Gluconamide]

Γmax (surface excess concentration at surface saturation) [9]: 3.16 × 10^-10 mole/cm^2
Πcmc (surface pressure) [10]: 40.7 dyn/cm
Compound: CCCCCCCCCCCCOCCOCCOCCOCCOCCO [Dodecylpenta(oxyethylene) Ether]
CMC/C20 ([7]; 25 °C): 15.0
Πcmc (surface pressure) ([7]; 25 °C): 41.5 dyn/cm
Πcmc (surface pressure) ([7]; 40 °C): 41.2 dyn/cm
Γmax (surface excess concentration at surface saturation) ([8]; 25 °C): 3.31 × 10^-10 mole/cm^2
Γmax (surface excess concentration at surface saturation) ([8]; 40 °C): 3.28 × 10^-10 mole/cm^2

Γmax (surface excess concentration at surface saturation) [9]: 3.01 × 10^-10 mole/cm^2
Πcmc (surface pressure) [10]: 40.7 dyn/cm
Compound: CCCCCCCCCCCCOCCOCCOCCOCCO [Dodecyltetra(oxyethylene) Ether]
Πcmc (surface pressure) ([7]; 25 °C): 43.4 dyn/cm
Πcmc (surface pressure) ([7]; 40 °C): 42.0 dyn/cm
Γmax (surface excess concentration at surface saturation) ([8]; 25 °C): 3.63 × 10^-10 mole/cm^2
Γmax (surface excess concentration at surface saturation) ([8]; 40 °C): 3.41 × 10^-10 mole/cm^2

Γmax (surface excess concentration at surface saturation) [9]: 3.83 × 10^-10 mole/cm^2
Πcmc (surface pressure) [10]: 41.4 dyn/cm
Compound: CCCCCCCCCCCCOCCOCCOCCO [Dodecyltri(oxyethylene) Ether]
Πcmc (surface pressure) ([7]; 25 °C): 44.1 dyn/cm
Πcmc (surface pressure) ([7]; 40 °C): 43.1 dyn/cm
Γmax (surface excess concentration at surface saturation) ([8]; 25 °C): 3.98 × 10^-10 mole/cm^2
Γmax (surface excess concentration at surface saturation) ([8]; 40 °C): 3.90 × 10^-10 mole/cm^2

Appearance [1, 14]: Precipitate
Appearance (Time): time of precipitate ([1]; 3.0%): 1 days
Appearance [1, 13]: Precipitate
Appearance (Time): time of precipitate ([1]; 5.0%): 0.083 days
Compound: coco D-gluconamide

Final FH after 60 Min. ([11]; 0 ppm hardness): 70 mm
Final FH after 60 Min. ([11]; 120 ppm hardness): 53 mm
Compound: cocoamide monoethanolamine [Cocoamide MEA]

Appearance [1, 14]: Clear
Appearance [1, 13]: Clear
Foam Height Initial [2]: 186 mm
Foam Height Final [2]: 182 mm
Krafft Point (0.1%) [3]: 18 °C
Compound: cocoaminopropyl D-gluconamide

Further lines, the compound ahead of its results:

Compound: CCCCCCCCCNC(=O)[C@H](O)[C@@H](O)[C@H](O)[C@H](O)CO [C9 D-Gluconamide]
Appearance ([1]; 4.0% in […] sodium lauryl sulfate): Precipitate
Appearance (Time): time of precipitate ([1]; 4.0%): 2 weeks
Appearance [1, 13]: Precipitate
Appearance (Time): time of precipitate ([1]; 5.0%): 2 weeks
Foam Height Initial [2]: 0 mm
Foam Height Final [2]: 0 mm
Krafft Point (0.1%) [3]: 53 °C

Compound: CCCCCCCCCCNC(=O)[C@H](O)[C@@H](O)[C@H](O)[C@H](O)CO [C10 D-Gluconamide]
Appearance [1, 14]: Precipitate
Appearance [1, 13]: Precipitate
Foam Height Final [2]: 6 mm
Krafft Point (0.1%) [3]: 75 °C

Compound: CCCCCCCCCCCCOCCCNC(=O)[C@H](O)[C@@H](O)[C@H](O[C@@H]1O[C@H](CO)[C@H](O)[C@H](O)[C@H]1O)[C@H](O)CO [C12 Oxypropyl D-Lactobionamide, dodecyloxypropyl D-lactobionamide]
Viscosity Increase ([6]; 3.0% thickener): 23 x
Viscosity ([6]; 3.0% thickener): 340 Centipoise
Viscosity Increase ([6]; 5.0% thickener): 97 x
Viscosity ([6]; 5.0% thickener): 1455 Centipoise
Krafft Point (1.0%) [3]: < 0 °C

Compound: CCCCCCCCCCCCOCCOCCOCCOCCOCCOCCOCCO [Dodecylhepta(oxyethylene) Ether]
Πcmc (surface pressure) ([7]; 25 °C): 38.3 dyn/cm
Πcmc (surface pressure) ([7]; 40 °C): 38.5 dyn/cm
Γmax (surface excess concentration at surface saturation) ([8]; 25 °C): 2.90 × 10^-10 mole/cm^2
Γmax (surface excess concentration at surface saturation) ([8]; 40 °C): 2.77 × 10^-10 mole/cm^2
Γmax (surface excess concentration at surface saturation) [9]: 2.71 × 10^-10 mole/cm^2
Πcmc (surface pressure) [10]: 36.8 dyn/cm

Compound: CCCCCCCCCCCC(=O)N(CCO)CCO [Lauramide DEA, lauramide diethanolamine]
Initial FH ([11]; 0 ppm hardness): 190 mm

Compound: octyl/decyloxypropyl D-lactobionamide [C8 /C10 Oxypropyl D-Lactobionamide]
Appearance [1, 14]: Clear
Appearance [1, 13]: Clear
Foam Height Initial [2]: 168 mm
Foam Height Final [2]: 158 mm
Krafft Point (1.0%) [3]: < 0 °C

Compound: octyl/decyloxypropyl D-ribonamide [C8 /C10 Oxypropyl D-Ribonamide]
Foam Height Initial [2]: 217 mm
Foam Height Final [2]: 200 mm
Krafft Point (0.1%) [3]: 10 °C

Compound: sodium dodecyl benzene sulfonate [C12 LAS]
Foam Height, With Antifoam [12]: 61 mm
